Assay results as given in patent US7049331B2, “1,2,4-thiadiazole derivatives as melanocortin receptor modulators” (Ortho-McNeil Pharmaceutical, Inc., priority 2001, dated 2006).

What was measured:
[1] = system: rabbit adipocytes; settings: read-out: EC50 lipolytic activity; cited from earlier work
[2] = system: rat adipocytes; settings: read-out: EC50 lipolytic activity; cited from earlier work
[3] = system: isolated human and non-human primate adipocytes; settings: concentrations as high as 1 μM; cited from earlier work
[4] = system: Male Long-Evans rats, facial nerve compression; experiment: In vivo Facial Nerve Compression Model; design: species or system rat; settings: test compounds p.o. 20 mg/kg bid, αMSH s.c. 70 ug/each 48 hr
Text: The ability of test compound to provide neuro-protective or neuro-regenerative effects was investigated in a facial nerve compression model. Facial nerve motor axons arise exclusively from neurons within the pons in a well-defined nucleus. Facial nerve compression results in retrograde reactions proximal to the lesion site and Wallerian degeneration at its distal part, which causes diminished whisker movement on the lesioned side.
Male Long-Evans rats (150–180 g) were anesthetized with 3–5% isoflorane for induction and 2% for maintenance during the surgical procedures. The right facial nerve was exposed and compressed with forceps for 30 sec at its exit from the stylomastoid foramen. The left facial nerve was sham-operated and served as an internal control. […] The following morphological abnormalities associated with the functional deficit were observed:
After recovery from anesthesia, the rats were randomly divided into groups for dosing with vehicle, αMSH or test compound, with 6 animals per group. αMSH (s.c., 70 ug/each 48 hr) was used as a positive control. Test compounds were dosed p.o. at 20 mg/kg bid for 14 days. Restoration of whisker movement was monitored daily after the operation using two criteria:
(1) frequency of whisker movement on the lesioned side relative to the opposite side (sham-operated) which served as the baseline control
(2) semi-quantitative measurements (0 to 4+) on strength of the whisker muscles, characterized based on observation of the percentage of moved whiskers, muscle tone of whisker muscles, and the position of the nose. For all observations, the experimental design was blind to the behavioral observer.
The recovery rate of the whisker movement was expressed as percentage of its own internal control (sham-operated), as listed in Table 8.

[5] = biological target: T1, melanocortin MC-4 receptor (Homo sapiens, UniProt P32245); experiment: Melanocortin MC-4 Receptor Binding Assay (SPA)
T1 construct: purchased Receptor Biology Inc
How it was run: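 Membranes bound to WGA SPA beads were incubated 16 h at 25° C with 40 pM ¹²⁵I-NDP-MSH and test compound (1 mM stock in 30% DMSO-HEPES pH 7.4). Nonspecific binding set with 1 μM NDP-MSH or α-MSH; percent inhibition from bound cpm.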

[6] = system: human sebocytes; experiment: Nile red evaluation of lipid accumulation in sebocytes; assay type: cell-based; settings: for inhibition at 0.4 µM: read-out: % Inh 0.4 μM (lipid accumulation, Nile red); for inhibition at 0.8 µM: read-out: % Inh 0.8 μM (lipid accumulation, Nile red)
Description: The cells were incubated at 37° C. for 24 hours prior to their use as a feeder layer for sebocytes. Human sebocytes were isolated from Dermatome shavings of postoperative pieces of human skin at 0.4-0.8 mm depths (this part of the skin was previously shown to be enriched in sebaceous glands). […] This medium was changed every 3 days (Phase III). Hormones, mixture of hormones i.e. bovine pituitary extract or compounds to be tested were added to the culture at the beginning of phase III. […] The evaluation of lipid accumulation completed using the Nile red method. This method relies on visualization of neutral lipids by Nile red and quantitation by reading of fluorescence at 535 nm excitation, 580 nm emission using a plate reader. The lipid synthesis was evaluated by radioactive labeling using ^14C acetate and quantified by Bio Rad Phosphoimager (Molecular Imager, FX) using 4.1 Software. […] Quantitation of accumulation/inhibition of neutral lipids in sebocytes was accomplished by Nile red binding assay. Briefly, following exposure of sebocytes to test compounds, the cells were allowed to interact with 1 μM Nile red in Hanks buffered saline solution containing DMSO and Pluronic F127. After 4 hours of incubation, washing and incubation overnight, the fluorescence was read at 535 excitation and 580 emission using a fluorescence plate reader. […] Following the procedure described above, select compounds of the present invention were tested for visual and Nile red evaluation of lipid accumulation, with results as listed in Table 9.

[7] = system: human sebocytes; experiment: Visual observation of lipid granule formation in sebocytes; assay type: cell-based
Description: Semiconfluent cultures of 3T3 mouse fibroblasts (Swiss Albino mouse, ATCC CCL-92) were treated with mitomycin C (4 μg/ml) for 3 hours, trypsinized and seeded at a density of 2.5×10^5/9.5 cm^2 tissue culture plate in Dulbeccos Minimal Essential Medium (DMEM) containing 10% Colorado Calf Serum, PNC (100U/ml), STM (100 μg/ml), L glutamine (0.3 mg/ml), sodium pyruvate (1 mM) and nonessential amino acids (100 μM). The cells were incubated at 37° C. for 24 hours prior to their use as a feeder layer for sebocytes.
Human sebocytes were isolated from Dermatome shavings of postoperative pieces of human skin at 0.4–0.8 mm depths (this part of the skin was previously shown to be enriched in sebaceous glands). Shavings so obtained were treated with 1% Dispase in Iscoves medium containing 10% serum for 20 min at 37° C. The tissue was then placed in 0.3% trypsin/1% EDTA in Phosphate Buffered Saline (PBS) for 10 minutes at 37° C. Following this incubation the cells were gently scraped from the tissue in Growth medium (GM) containing DMEM/F12 media mixture (3:1), supplemented with 8% heat inactivated FBS, 2% heat inactivated human serum (HS), 1 mM sodium pyruvate, epidermal growth factor (10 ng/ml), insulin (10 μg/ml), hydrocortisone (0.4 μg/ml) and +/−cholera toxin (100 μg/ml), L-glutamine and antibiotics. Cells so obtained were filtered through nylon mesh ([…]), centrifuged at 750 RPM, re-suspended in GM and counted.
Resultant cells from the above isolation procedure were plated on the 3T3 feeder layers at 2×10^5/9.5 cm^2 in growth medium and maintained at 37° C. and 5% CO2 for 3 days (Phase I). Following the initial growth period they were transferred to a transition medium (TM) that consisted of DMEM/F12 media supplemented with 1 mM sodium pyruvate, insulin ([…]), transferrin ([…]) and selenium (5.5 μg/ml) (ITS), 2% heat inactivated FBS and 2% heat inactivated human serum as well as +/−cholera toxin (ch.t.) (100 μg/ml), L-glutamine and antibiotics (Phase II). Three days later the cells were changed to differentiation medium (DM), DMEM/F12 supplemented with ITS, 3,3′,5-triido-L-thyronine sodium (3 nM), 1%(v/v) trace element mix and the choice of differentiation agent i.e. bovine pituitary extract (10 μg/ml). This medium was changed every 3 days (Phase III).
Hormones, mixture of hormones i.e. bovine pituitary extract or compounds to be tested were added to the culture at the beginning of phase III. Two criteria were used to evaluate the effect of these materials on sebaceous cultures: 1) visual observations and 2) evaluation of sebaceous lipid accumulation and synthesis. The evaluation of lipid accumulation completed using the Nile red method. This method relies on visualization of neutral lipids by Nile red and quantitation by reading of fluorescence at 535 nm excitation, 580 nm emission using a plate reader. The lipid synthesis was evaluated by radioactive labeling using ^14C acetate and quantified by Bio Rad Phosphoimager (Molecular Imager, FX) using 4.1 Software.
Quantitation of accumulation/inhibition of neutral lipids in sebocytes was accomplished by Nile red binding assay. Briefly, following exposure of sebocytes to test compounds, the cells were allowed to interact with 1 μM Nile red in Hanks buffered saline solution containing DMSO and Pluronic F127. After 4 hours of incubation, washing and incubation overnight, the fluorescence was read at 535 excitation and 580 emission using a fluorescence plate reader.
Following the procedure described above, select compounds of the present invention were tested for visual and Nile red evaluation of lipid accumulation, with results as listed in Table 9.
Following the procedure described above, select compounds of the present invention were tested for their inhibitory effect on differentiation of human sebocytes. […]

[8] = biological target: MC5-R (Homo sapiens, UniProt P33032); experiment: MC5-R binding
Sequence of MC5-R (P33032 whole entry): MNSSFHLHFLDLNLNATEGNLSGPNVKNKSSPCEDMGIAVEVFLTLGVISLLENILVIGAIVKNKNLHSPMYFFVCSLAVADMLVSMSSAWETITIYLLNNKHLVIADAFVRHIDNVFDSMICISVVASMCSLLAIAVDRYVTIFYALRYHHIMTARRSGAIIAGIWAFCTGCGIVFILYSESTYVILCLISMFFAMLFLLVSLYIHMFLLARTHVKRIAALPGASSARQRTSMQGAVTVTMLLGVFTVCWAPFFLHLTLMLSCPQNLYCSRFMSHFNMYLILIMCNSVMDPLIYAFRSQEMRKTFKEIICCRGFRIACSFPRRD

T1 sequence (P32245 whole entry): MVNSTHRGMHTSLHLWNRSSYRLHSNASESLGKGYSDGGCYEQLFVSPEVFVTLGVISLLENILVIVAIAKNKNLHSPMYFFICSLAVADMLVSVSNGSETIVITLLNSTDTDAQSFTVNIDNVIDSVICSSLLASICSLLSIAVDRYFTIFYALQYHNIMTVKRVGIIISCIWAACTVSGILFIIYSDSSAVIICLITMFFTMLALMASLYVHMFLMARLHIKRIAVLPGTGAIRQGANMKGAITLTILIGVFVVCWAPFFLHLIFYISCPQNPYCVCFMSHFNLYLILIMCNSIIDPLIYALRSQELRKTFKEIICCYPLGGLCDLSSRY

ACTH: melanocortin neuropeptide arising from pro-opiomelanocortin (POMC) (SYSMEHFRWGKPVGKKRRPVKVYPNGAEDESAEAFPLEF; Corticotropin; UniProt P01189 138-176, looked up)
EC50 [1]: 16.4 nM | EC50 [2]: 1.34 nM | effect on lipolysis [3]: very little effect on lipolysis

α-MSH: alpha-melanocyte stimulating hormone peptide, used as a positive control [reference compound]
Percent Recovery of whisker movement D9 ([4]; D9, % of sham-operated side): 2.0% | Percent Recovery of whisker movement D10 ([4]; D10): 24.6% | Percent Recovery of whisker movement D11 ([4]; D11): 60.1% | Percent Recovery of whisker movement D12 ([4]; D12): 93.8% | Percent Recovery of whisker movement D13 ([4]; D13): 98.1% | Percent Recovery of whisker movement D14 ([4]; D14): 100% | EC50 [1]: 3.7 nM

COc1ccccc1-c1nc(Nc2ccccc2Cl)s[n+]1-c1ccccc1OC [Compound 80]
IC50 [5]: 378 nM | inhibition at 0.4 µM [6]: 61% | inhibition at 0.8 µM [6]: 91% | Visual* 0.4 μM (inhibition of lipid granule formation) [7]: ++ (++ =50%) | Visual* 0.8 μM (inhibition of lipid granule formation) [7]: ++++ (++++ = 100%) | IC50 [8]: 138 nM

COc1ccccc1Nc1nc(-c2ccccc2OC)[n+](-c2ccccc2OC)s1 [Compound 76]
IC50 [5]: 332 nM | inhibition at 0.4 µM [6]: 48% | inhibition at 0.8 µM [6]: 88% | Visual* 0.4 μM (inhibition of lipid granule formation) [7]: ++ (++ =50%) | Visual* 0.8 μM (inhibition of lipid granule formation) [7]: +++ (+++ = 75%) | IC50 [8]: 317 nM
